This note sets out measurements from EP0472783A1, “Anti-tumor compositions and compounds” (PHARMACHEMIE B.V., priority 1990, dated 1992).

Common to all, as to type: cell-based, human
Experiment [1] has as its system IgR-37 melanoma (Z cells). The experiment is described as follows: PIT method in vitro cell growth inhibition, IgR-37. The settings on record: amount which inhibits 50% of the cell growth; IgR-37 cells. The procedure: (§1) The tests were carried out according to the method of R.van Lambalgen en P. Lelieveld, The PIT method: an automated in vitro technique for drug toxicity testing. Invest.
(§2) The ID50 values in ng/ml for the above compounds were determined according to the above mentioned procedure of van Lambalgen and Lelieveld.

In experiment [2] the test system is MCF-7 mammary carcinoma (M cells). The experiment is described as follows: PIT method in vitro cell growth inhibition, MCF-7. The conditions noted are these: amount which inhibits 50% of the cell growth; MCF-7 cells. The method, then:
as §1, §2

The subject of experiment [3] is A 204 rhabdomyosarcoma (A cells). In words: PIT method in vitro cell growth inhibition, A 204. The conditions noted are these: amount which inhibits 50% of the cell growth; A 204 cells. The method, then:
as §1, §2

Experiment [4] relates to T24 bladder carcinoma (T cells). The experiment is described as follows: PIT method in vitro cell growth inhibition, T24. The settings on record: amount which inhibits 50% of the cell growth. The procedure:
as §1, §2

The test system of experiment [5] is WiDr colon tumor cells (W cells). The experiment is described as follows: PIT method in vitro cell growth inhibition, WiDr. The settings on record: amount which inhibits 50% of the cell growth. The method, then: as §1, §2

As for `N.N.[Cl][Pt][Cl]` [cis platium, cis-(NH3)2PtCl2], the “ID50 values in ng/ml IgR-37” value in experiment [1] is 878 ng/mL. For the same compound, in experiment [2], the “ID50 values in ng/ml MCF-7” value stood at 850 ng/mL. In addition, the “ID50 values in ng/ml A 204” value in experiment [3] is 871 ng/mL. In addition, in experiment [4], the “ID50 values in ng/ml T24” value amounted to 268 ng/mL. Moreover, the “ID50 values in ng/ml WiDr” value in experiment [5] was 624 ng/mL.
